Numbered stars: 1 amine (or outer) side, 2 acyl side, 3 side chain; on linkers, the order of the positions; unused ones are H or OH. Bridge positions count the residues as written; N and C are the ends. Square brackets hold non-standard residues; d marks the D form. Peptide text beside a SMILES is read from it. TBMB = c1c(C[*:1])cc(C[*:3])cc1C[*:2]; NMeC = CN[C@@H](CS)C(=O)O; NMeA = CN[C@@H](C)C(=O)O
Biological target: human plasma kallikrein (hPK) (Homo sapiens, UniProt P03952)
Test: Enzyme inhibition assay, human plasma kallikrein
Details: not given

Compared with CC(C)[C@@H]1NC(=O)[C@H](CCCNC(=N)N)NC(=O)[C@@H]2CSCc3cc(cc(c3)CSC[C@@H](C(=O)N[C@@H](C)C(N)=O)NC(=O)[C@H](CC(N)=O)NC1=O)CSC[C@H](NC(=O)[C@H](C)N)C(=O)N[C@@H](Cc1ccccc1)C(=O)N[C@@H](Cc1ccc(O)cc1)C(=O)N[C@@H](CCCCN)C(=O)N2 [Peptide 06-71] (H-ACFYKCRVNCA-NH2; linker 2-6-10 via TBMB), CC(=O)N[C@H]1CSCc2cc3cc(c2)CSC[C@H](NC(=O)[C@@H]2CCCN2C(=O)[C@H](CO)NC(=O)[C@H](CCCNC(=N)N)NC(=O)[C@H](C)NC(=O)[C@H](Cc2c[nH]c4ccccc24)NC1=O)C(=O)N[C@@H](CC(C)C)C(=O)N[C@@H](Cc1c[nH]cn1)C(=O)N[C@@H](CCC(N)=O)C(=O)N[C@@H](CC(=O)O)C(=O)N[C@@H](CC(C)C)C(=O)N[C@H](C(N)=O)CSC3 [Ac-(06-34-18) Scram4] (Ac-CWARSPCLHQDLC-NH2; linker 1-7-13 via TBMB) is 4400-fold higher in Ki: 0.0152 µM for the first, 67.5 µM for the second.

Compared with CC(=O)N[C@H]1CSCc2cc3cc(c2)CSC[C@@H](C(=O)N[C@@H](CC(C)C)C(=O)N[C@@H](Cc2c[nH]cn2)C(=O)N[C@@H](CCC(N)=O)C(=O)N[C@@H](CC(=O)O)C(=O)N[C@@H](CC(C)C)C(=O)N[C@H](C(N)=O)CSC3)N(C)C(=O)[C@H](CCCNC(=N)N)NC(=O)[C@H](C)NC(=O)[C@@H]2CCCN2C(=O)[C@H](Cc2c[nH]c3ccccc23)NC(=O)[C@H](CO)NC1=O [Ac-(06-34-18) NMeCys2] (Ac-CSWPAR[NMeC]LHQDLC-NH2; linker 1-7-13 via TBMB), CC(=O)N[C@H]1CSCc2cc3cc(c2)CSC[C@H](NC(=O)[C@H](CCCNC(=N)N)NC(=O)[C@@H](C)NC(=O)[C@@H]2CCCN2C(=O)[C@H](Cc2c[nH]c4ccccc24)NC(=O)[C@H](CO)NC1=O)C(=O)N[C@@H](CC(C)C)C(=O)N[C@@H](Cc1c[nH]cn1)C(=O)N[C@@H](CCC(N)=O)C(=O)N[C@@H](CC(=O)O)C(=O)N[C@@H](CC(C)C)C(=O)N[C@H](C(N)=O)CSC3 [Ac-(06-34-18) D-Ala4] is 2.9-fold higher in Ki: 0.418 µM for the first, 1.2 µM for the second.

Going from CC(=O)N[C@H]1CSCc2cc3cc(c2)CSC[C@H](NC(=O)[C@H](CCCNC(=N)N)NC(=O)[C@H](C)N(C)C(=O)[C@@H]2CCCN2C(=O)[C@H](Cc2c[nH]c4ccccc24)NC(=O)[C@H](CO)NC1=O)C(=O)N[C@@H](CC(C)C)C(=O)N[C@@H](Cc1c[nH]cn1)C(=O)N[C@@H](CCC(N)=O)C(=O)N[C@@H](CC(=O)O)C(=O)N[C@@H](CC(C)C)C(=O)N[C@H](C(N)=O)CSC3 [Ac-(06-34-18) NMeAla4] (Ac-CSWP[NMeA]RCLHQDLC-NH2; linker 1-7-13 via TBMB) to CC(=O)N[C@H]1CSCc2cc3cc(c2)CSC[C@H](NC(=O)[C@H](C)NC(=O)[C@@H]2CCCN2C(=O)[C@H](Cc2c[nH]c4ccccc24)NC(=O)[C@H](CO)NC1=O)C(=O)N[C@@H](CC(C)C)C(=O)N[C@@H](Cc1c[nH]cn1)C(=O)N[C@@H](CCC(N)=O)C(=O)N[C@@H](CC(=O)O)C(=O)N[C@@H](CC(C)C)C(=O)N[C@H](C(N)=O)CSC3 [Ac-(06-34-18) Δ Arg5] (Ac-CSWPACLHQDLC-NH2; linker 1-6-12 via TBMB), the Ki rises from 0.343 µM to greater than 100 µM.

For CC(=O)N[C@H]1CSCc2cc3cc(c2)CSC[C@H](NC(=O)[C@H](CCCNC(=N)N)NC(=O)[C@H](C)NC(=O)[C@H](CCC(N)=O)NC(=O)[C@H](C)NC(=O)[C@H](CO)NC1=O)C(=O)N[C@@H](CC(C)C)C(=O)N[C@@H](Cc1c[nH]cn1)C(=O)N[C@@H](CCC(N)=O)C(=O)N[C@@H](CC(=O)O)C(=O)N[C@@H](CC(C)C)C(=O)N[C@H](C(N)=O)CSC3 [Ac-(06-34-18) A2Q3] (Ac-CSAQARCLHQDLC-NH2; linker 1-7-13 via TBMB), the Ki was 15.8 µM.

Same assay, conditions: versus Ac-06-34-18(TMB)-NH2

For CC(=O)N[C@H]1CSCc2cc3cc(c2)CSC[C@H](NC(=O)[C@H](CCCNC(=N)N)NC(=O)[C@@H](C)NC(=O)[C@@H]2CCCN2C(=O)[C@H](Cc2c[nH]c4ccccc24)NC(=O)[C@H](CO)NC1=O)C(=O)N[C@@H](CC(C)C)C(=O)N[C@@H](Cc1c[nH]cn1)C(=O)N[C@@H](CCC(N)=O)C(=O)N[C@@H](CC(=O)O)C(=O)N[C@@H](CC(C)C)C(=O)N[C@H](C(N)=O)CSC3 [Ac-(06-34-18) D-Ala4], the “fold reduction in affinity to kallikrein compared to wildtype peptide” value was 7000 fold.

— patent US9994617B2, “Modulation of structured polypeptide specificity” (BICYCLE THERAPEUTICS LIMITED, priority 2011, dated 2018)
